This is an account of results in patent US11173151B2, “Substituted triazole derivatives and uses thereof” (BAYER AKTIENGESELLSCHAFT, priority 2017, dated 2021).

Assay [1] addresses T1, human V2 receptor (Homo sapiens, UniProt P30518).
T1 construct: expressed in transfected cells; host or cells: CHO K1 (ATCC) expressing firefly luciferase under a CRE-responsive promoter
Briefly: Cellular in vitro assay for determining vasopressin receptor activity, V2 receptor cell line (CHO, CRE-luciferase). The note with it: CHO cell line transfected with human V2 receptor; [Arg8]-vasopressin at EC50 concentration, 3 hours; read-out: IC50 hV2. Type of assay: cell-based.

In assay [2] the target is T2, human V1a receptor (Homo sapiens, UniProt P37288).
T2 construct: expressed in transfected cells; host or cells: CHO K1 (ATCC), also stably transfected with a modified aequorin
The assay can be described thus: Cellular in vitro assay for determining vasopressin receptor activity, V1a receptor cell line (CHO, aequorin luminescence). It is filed as cell-based. The note with it: for pIC50: CHO cell line transfected with human V1a receptor, [Arg]-vasopressin at EC50 concentration, read-out: IC50 hV1a; for ratio IC50 hV2/hV1a: selectivity ratio IC50 hV2 / IC50 hV1a. The procedure, abridged:
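Luminescence from reconstituted aequorin, reporting intracellular calcium release, was measured immediately after adding [Arg]-vasopressin at EC50 concentration to CHO K1 cells pretreated 10 minutes with graded compound concentrations. Inhibition gave IC50 values.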

Structures are written as SMILES. pIC50: −log10 of the molar value.

T2 sequence (P37288 whole entry): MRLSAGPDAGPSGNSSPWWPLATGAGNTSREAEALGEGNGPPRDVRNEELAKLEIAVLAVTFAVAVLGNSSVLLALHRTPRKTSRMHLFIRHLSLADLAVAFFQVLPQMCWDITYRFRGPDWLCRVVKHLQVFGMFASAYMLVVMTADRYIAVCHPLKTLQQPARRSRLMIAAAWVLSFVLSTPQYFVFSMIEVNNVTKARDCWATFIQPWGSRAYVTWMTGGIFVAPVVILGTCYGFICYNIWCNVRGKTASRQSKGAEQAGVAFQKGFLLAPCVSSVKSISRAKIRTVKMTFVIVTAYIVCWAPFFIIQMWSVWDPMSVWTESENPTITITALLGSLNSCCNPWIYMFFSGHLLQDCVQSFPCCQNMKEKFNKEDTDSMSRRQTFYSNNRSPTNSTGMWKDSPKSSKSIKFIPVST
T1 sequence (P30518 whole entry): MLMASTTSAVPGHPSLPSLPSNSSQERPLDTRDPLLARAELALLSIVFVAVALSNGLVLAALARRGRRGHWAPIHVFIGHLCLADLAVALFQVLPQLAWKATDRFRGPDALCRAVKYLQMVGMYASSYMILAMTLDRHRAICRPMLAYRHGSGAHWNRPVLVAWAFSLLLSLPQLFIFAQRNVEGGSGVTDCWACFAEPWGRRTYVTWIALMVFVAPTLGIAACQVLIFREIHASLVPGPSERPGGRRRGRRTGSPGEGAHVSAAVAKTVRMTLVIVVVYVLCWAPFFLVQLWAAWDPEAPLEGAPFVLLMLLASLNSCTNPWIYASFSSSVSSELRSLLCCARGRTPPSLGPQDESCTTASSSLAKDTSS

`CCC(C)(O)C(=O)Nc1ncccc1-n1cnc(Cn2nc(-c3ccc(Cl)cc3)n(C[C@H](O)C(F)(F)F)c2=O)n1` (stereo partly drawn) [Example 120]: the results for the negative-log IC50 (pIC50) in assay [1] and in assay [2] were 6.37 and 7.57, respectively. For the same compound, in assay [2], the “ratio IC50 hV2/hV1a” value is 15.7.

In the case of `O=C(Nc1ncccc1-n1cnc(Cn2nc(-c3ccc(Cl)cc3)n(C[C@H](O)C(F)(F)F)c2=O)n1)c1ccc(F)cc1` [Example 121], the negative logarithm of the IC50 (pIC50) in assay [1] is 5.82. In assay [2], the negative logarithm of the IC50 (pIC50) was 7.28 and the “ratio IC50 hV2/hV1a” value stood at 28.8.

As to `Cc1ccccc1C(=O)Nc1ncccc1-n1cnc(Cn2nc(-c3ccc(Cl)cc3)n(C[C@H](O)C(F)(F)F)c2=O)n1` [Example 122], the pIC50 in assay [1] was 5.78. Also, in assay [2], the pIC50 was 6.92 and the “ratio IC50 hV2/hV1a” value is listed as 13.8.

Consider `Cc1ccc(C(=O)Nc2ncccc2-n2cnc(Cn3nc(-c4ccc(Cl)cc4)n(C[C@H](O)C(F)(F)F)c3=O)n2)cc1` [Example 123], for which the pIC50 in assay [1] was 5.64. In assay [2], the pIC50 is 6.98 and the “ratio IC50 hV2/hV1a” value was determined as 21.9.

In the case of `Cc1n[nH]c(C)c1C(=O)Nc1ncccc1-n1cnc(Cn2nc(-c3ccc(Cl)cc3)n(C[C@H](O)C(F)(F)F)c2=O)n1` [Example 124], the negative-log IC50 (pIC50) in assay [1] was 5.42. In assay [2], the pIC50 is 6.50 and the “ratio IC50 hV2/hV1a” value stood at 12.1.

As for `NC(=O)C1(C(=O)Nc2ncccc2-n2cnc(Cn3nc(-c4ccc(Cl)cc4)n(C[C@H](O)C(F)(F)F)c3=O)n2)CC1` [Example 125], the pIC50 in assay [1] is 6.44. Moreover, in assay [2], the negative-log IC50 (pIC50) was 7.53 and the “ratio IC50 hV2/hV1a” value was 12.2.

For `CC[C@@H](C)C(=O)Nc1ncccc1-n1cnc(Cn2nc(-c3ccc(Cl)cc3)n(C[C@H](O)C(F)(F)F)c2=O)n1` [Example 126], the negative-log IC50 (pIC50) in assay [1] is 6.60. For the same compound, in assay [2], the negative logarithm of the IC50 (pIC50) was 7.44 and the “ratio IC50 hV2/hV1a” value is given as 6.9.

As to `Cc1ccn(CC(=O)Nc2ncccc2-n2cnc(Cn3nc(-c4ccc(Cl)cc4)n(C[C@H](O)C(F)(F)F)c3=O)n2)n1` [Example 127], in assay [1], the negative logarithm of the IC50 (pIC50) was 5.98. Besides, in assay [2], the pIC50 is 6.80 and the “ratio IC50 hV2/hV1a” value amounted to 6.6.

Take `Cc1nnsc1C(=O)Nc1ncccc1-n1cnc(Cn2nc(-c3ccc(Cl)cc3)n(C[C@H](O)C(F)(F)F)c2=O)n1` [Example 128]: the negative-log IC50 (pIC50) in assay [1] was 5.82; in assay [2], 7.87. Besides, the “ratio IC50 hV2/hV1a” value in assay [2] came out at 111.1.

In the case of `Cc1cc(C(=O)Nc2ncccc2-n2cnc(Cn3nc(-c4ccc(Cl)cc4)n(C[C@H](O)C(F)(F)F)c3=O)n2)nn1C` [Example 129], the figures for the pIC50 in assay [1] and in assay [2] were 5.44 and 6.17, respectively. Further, the “ratio IC50 hV2/hV1a” value in assay [2] turned out to be 5.4.

Regarding `Cc1[nH]ncc1C(=O)Nc1ncccc1-n1cnc(Cn2nc(-c3ccc(Cl)cc3)n(C[C@H](O)C(F)(F)F)c2=O)n1` [Example 130], the negative-log IC50 (pIC50) in assay [1] was 5.35; in assay [2], 6.72. In addition, in assay [2], the “ratio IC50 hV2/hV1a” value is recorded as 23.9.

For `CC(C(=O)Nc1ncccc1-n1cnc(Cn2nc(-c3ccc(Cl)cc3)n(C[C@H](O)C(F)(F)F)c2=O)n1)n1ccnc1` (stereo partly drawn) [Example 131], the negative-log IC50 (pIC50) in assay [1] is 5.71. Also, in assay [2], the pIC50 is 7.90 and the “ratio IC50 hV2/hV1a” value came to 156.0.

Regarding `Cn1cncc1C(=O)Nc1ncccc1-n1cnc(Cn2nc(-c3ccc(Cl)cc3)n(C[C@H](O)C(F)(F)F)c2=O)n1` [Example 132], the pIC50 in assay [1] was 5.29; in assay [2], 7.34. The “ratio IC50 hV2/hV1a” value in assay [2] worked out at 113.2.

`Cc1nonc1C(=O)Nc1ncccc1-n1cnc(Cn2nc(-c3ccc(Cl)cc3)n(C[C@H](O)C(F)(F)F)c2=O)n1` [Example 133]: the results for the pIC50 in assay [1] and in assay [2] were 5.84 and 8.31, respectively. Besides, the “ratio IC50 hV2/hV1a” value in assay [2] turned out to be 295.9.

Turning to `O=C(Nc1ncccc1-n1cnc(Cn2nc(-c3ccc(Cl)cc3)n(C[C@H](O)C(F)(F)F)c2=O)n1)C1CCOCC1` [Example 134], the pIC50 in assay [1] is 5.90. Besides, in assay [2], the pIC50 was 6.93 and the “ratio IC50 hV2/hV1a” value is reported as 10.7.

As for `Cc1cc(CC(=O)Nc2ncccc2-n2cnc(Cn3nc(-c4ccc(Cl)cc4)n(C[C@H](O)C(F)(F)F)c3=O)n2)on1` [Example 135], the negative-log IC50 (pIC50) in assay [1] is 6.03. In assay [2], the negative-log IC50 (pIC50) was 7.18 and the “ratio IC50 hV2/hV1a” value stood at 14.0.

For the compound `O=C(CC1CCC1)Nc1ncccc1-n1cnc(Cn2nc(-c3ccc(Cl)cc3)n(C[C@H](O)C(F)(F)F)c2=O)n1` [Example 136], in assay [1], the negative logarithm of the IC50 (pIC50) is 6.47. Further, in assay [2], the pIC50 is 7.63 and the “ratio IC50 hV2/hV1a” value was determined as 14.5.

For the compound `COC(C)(C)C(=O)Nc1ncccc1-n1cnc(Cn2nc(-c3ccc(Cl)cc3)n(C[C@H](O)C(F)(F)F)c2=O)n1` [Example 137], the pIC50 in assay [1] is 5.87. Moreover, in assay [2], the pIC50 was 6.84 and the “ratio IC50 hV2/hV1a” value came out at 9.2.

Turning to `Cc1nonc1CC(=O)Nc1ncccc1-n1cnc(Cn2nc(-c3ccc(Cl)cc3)n(C[C@H](O)C(F)(F)F)c2=O)n1` [Example 138], the negative logarithm of the IC50 (pIC50) in assay [1] is 5.63. Moreover, in assay [2], the pIC50 was 7.41 and the “ratio IC50 hV2/hV1a” value is on record as 61.0.

`CCc1cc(C(=O)Nc2ncccc2-n2cnc(Cn3nc(-c4ccc(Cl)cc4)n(C[C@H](O)C(F)(F)F)c3=O)n2)no1` [Example 139]: the negative logarithm of the IC50 (pIC50) in assay [1] is 6.33. Also, in assay [2], the pIC50 was 7.69 and the “ratio IC50 hV2/hV1a” value amounted to 22.7.

`CCc1cc(C(=O)Nc2ncccc2-n2cnc(Cn3nc(-c4ccc(Cl)cc4)n(C[C@H](O)C(F)(F)F)c3=O)n2)on1` [Example 140]: in assay [1], the pIC50 was 6.00. Also, in assay [2], the pIC50 is 7.47 and the “ratio IC50 hV2/hV1a” value was 30.0.

With `O=C(CC1CCCO1)Nc1ncccc1-n1cnc(Cn2nc(-c3ccc(Cl)cc3)n(C[C@H](O)C(F)(F)F)c2=O)n1` (stereo partly drawn) [Example 141], the pIC50 is 5.97 in assay [1] and 7.49 in assay [2]. Further, the “ratio IC50 hV2/hV1a” value in assay [2] turned out to be 33.3.

`CC1=NOC(C)(C(=O)Nc2ncccc2-n2cnc(Cn3nc(-c4ccc(Cl)cc4)n(C[C@H](O)C(F)(F)F)c3=O)n2)C1` (stereo partly drawn) [Example 142]: the negative logarithm of the IC50 (pIC50) in assay [1] is 5.62; in assay [2] it was 7.00. Further, the “ratio IC50 hV2/hV1a” value in assay [2] is on record as 24.0.

With `O=C(Nc1ncccc1-n1cnc(Cn2nc(-c3ccc(Cl)cc3)n(C[C@H](O)C(F)(F)F)c2=O)n1)c1ccncn1` [Example 143], in assay [1], the pIC50 was 5.95. For the same compound, in assay [2], the pIC50 was 7.82 and the “ratio IC50 hV2/hV1a” value is 74.7.

Take `C=CC(C)C(=O)Nc1ncccc1-n1cnc(Cn2nc(-c3ccc(Cl)cc3)n(C[C@H](O)C(F)(F)F)c2=O)n1` (stereo partly drawn) [Example 144]: in assay [1], the negative-log IC50 (pIC50) was 5.72. Besides, in assay [2], the pIC50 is 6.73 and the “ratio IC50 hV2/hV1a” value is recorded as 10.3.

With `CC(C)(O)C(=O)Nc1ncccc1-n1cnc(Cn2nc(-c3ccc(Cl)cc3)n(C[C@H](O)C(F)(F)F)c2=O)n1` [Example 145], the pIC50 in assay [1] was 6.00; in assay [2], 6.90. For the same compound, the “ratio IC50 hV2/hV1a” value in assay [2] is on record as 8.1.

Turning to `CCCC(=O)Nc1ncccc1-n1cnc(Cn2nc(-c3ccc(Cl)cc3)n(C[C@H](O)C(F)(F)F)c2=O)n1` [Example 146], the negative-log IC50 (pIC50) in assay [1] is 6.26. Moreover, in assay [2], the pIC50 is 7.25 and the “ratio IC50 hV2/hV1a” value came to 9.9.

Take `CCC(=O)Nc1ncccc1-n1cnc(Cn2nc(-c3ccc(Cl)cc3)n(C[C@H](O)C(F)(F)F)c2=O)n1` [Example 147]: the pIC50 in assay [1] is 6.03. In addition, in assay [2], the pIC50 was 6.52 and the “ratio IC50 hV2/hV1a” value was determined as 3.1.

For `CC(C)CC(=O)Nc1ncccc1-n1cnc(Cn2nc(-c3ccc(Cl)cc3)n(C[C@H](O)C(F)(F)F)c2=O)n1` [Example 148], the pIC50 in assay [1] was 6.59. Moreover, in assay [2], the pIC50 is 7.72 and the “ratio IC50 hV2/hV1a” value came out at 13.4.

`CSCC(=O)Nc1ncccc1-n1cnc(Cn2nc(-c3ccc(Cl)cc3)n(C[C@H](O)C(F)(F)F)c2=O)n1` [Example 149]: in assay [1], the pIC50 is 5.72. In addition, in assay [2], the negative logarithm of the IC50 (pIC50) is 7.91 and the “ratio IC50 hV2/hV1a” value is reported as 153.2.

Consider `O=C(CC1CCCC1)Nc1ncccc1-n1cnc(Cn2nc(-c3ccc(Cl)cc3)n(C[C@H](O)C(F)(F)F)c2=O)n1` [Example 150], for which the figures for the pIC50 in assay [1] and in assay [2] were 5.62 and 7.26, respectively. The “ratio IC50 hV2/hV1a” value in assay [2] is on record as 44.0.

As to `CC(C)C(=O)Nc1ncccc1-n1cnc(Cn2nc(-c3ccc(Cl)cc3)n(C[C@H](O)C(F)(F)F)c2=O)n1` [Example 151], the negative-log IC50 (pIC50) in assay [1] is 6.18. Also, in assay [2], the negative-log IC50 (pIC50) is 7.01 and the “ratio IC50 hV2/hV1a” value was found to be 6.8.

As to `C=CCC(=O)Nc1ncccc1-n1cnc(Cn2nc(-c3ccc(Cl)cc3)n(C[C@H](O)C(F)(F)F)c2=O)n1` [Example 152], the negative logarithm of the IC50 (pIC50) in assay [1] was 5.87. In addition, in assay [2], the pIC50 was 7.19 and the “ratio IC50 hV2/hV1a” value is 20.8.

Regarding `N#Cc1cccc(C(=O)Nc2ncccc2-n2cnc(Cn3nc(-c4ccc(Cl)cc4)n(C[C@H](O)C(F)(F)F)c3=O)n2)c1` [Example 153], in assay [1], the negative-log IC50 (pIC50) was 4.76. For the same compound, in assay [2], the pIC50 is 6.39 and the “ratio IC50 hV2/hV1a” value worked out at 42.2.

`CC1(C(=O)Nc2ncccc2-n2cnc(Cn3nc(-c4ccc(Cl)cc4)n(C[C@H](O)C(F)(F)F)c3=O)n2)CC1` [Example 154]: the negative-log IC50 (pIC50) in assay [1] was 5.66. In assay [2], the pIC50 was 8.17 and the “ratio IC50 hV2/hV1a” value turned out to be 325.9.

As for `CC(C(=O)Nc1ncccc1-n1cnc(Cn2nc(-c3ccc(Cl)cc3)n(C[C@H](O)C(F)(F)F)c2=O)n1)n1cncn1` (stereo partly drawn) [Example 155], in assay [1], the pIC50 is 5.71. In assay [2], the negative logarithm of the IC50 (pIC50) was 7.41 and the “ratio IC50 hV2/hV1a” value is reported as 50.0.

Consider `O=C(Nc1ncccc1-n1cnc(Cn2nc(-c3ccc(Cl)cc3)n(C[C@H](O)C(F)(F)F)c2=O)n1)C1CCCCCC1` [Example 156], for which, in assay [1], the pIC50 is 5.87. In addition, in assay [2], the pIC50 was 7.18 and the “ratio IC50 hV2/hV1a” value was 20.5.
